{"source": "patent US10947196B2", "about": "“Beta adrenergic agonist and methods of using the same” (CURASEN THERAPEUTICS, INC., priority 2019, dated 2021)"}
{"target": "β1-adrenergic receptor (Homo sapiens (Human), UniProt P08588)", "sequence (P08588 whole entry, species assumed)": "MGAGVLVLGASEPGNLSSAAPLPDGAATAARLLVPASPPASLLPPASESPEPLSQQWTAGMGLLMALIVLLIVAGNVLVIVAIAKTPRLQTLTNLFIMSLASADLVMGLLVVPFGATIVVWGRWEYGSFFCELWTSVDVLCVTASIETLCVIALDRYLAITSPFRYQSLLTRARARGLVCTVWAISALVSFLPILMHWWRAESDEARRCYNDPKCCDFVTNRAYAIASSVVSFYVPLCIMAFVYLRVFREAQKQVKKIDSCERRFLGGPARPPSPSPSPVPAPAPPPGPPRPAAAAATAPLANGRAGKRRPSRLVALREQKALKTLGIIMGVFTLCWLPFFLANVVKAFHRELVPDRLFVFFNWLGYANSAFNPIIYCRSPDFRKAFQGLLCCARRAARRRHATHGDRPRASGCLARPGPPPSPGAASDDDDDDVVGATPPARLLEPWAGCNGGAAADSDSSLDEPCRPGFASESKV", "assay": "cAMP Gs dynamic HTRF assay, β1 expressing CHO cells", "format": "cell-based", "settings": "B1-AR; CHO-K1 (HitHunter); read-out: Average pEC50 [Receptor subtype: B1-AR; Cell type: CHO-K1 (HitHunter)] (converted)", "outline": "(§1)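 Intracellular cAMP quantified by Eu-donor/d2-acceptor HTRF after 30 min compound exposure at 37° C in stimulation buffer with IBMX. Concentrations ran 10 μM top, 5-fold steps, 10 points. Cell lines: 1321N1 astrocytoma and CHO expressing β1 or β2; EC50 via four-parameter fit, relative efficacy against isoproterenol.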", "units": {"EC50": "nM"}}
{"smiles": "O[C@@H](CNC1Cc2ccccc2C1)c1cccc(C(F)(F)F)n1", "note": "[Compound 03-21]", "EC50": "100 to 1000"}
{"smiles": "CC(C)(C)NCC(O)c1cncc(Cl)n1", "note": "(stereo not drawn) [Compound 03-219]", "EC50": "100 to 1000"}
{"smiles": "CC(C)(C)NC[C@H](O)c1ccc(C(F)(F)F)cn1", "note": "[Compound 03-126]", "EC50": "10 to 100"}
{"smiles": "CC1(NC[C@H](O)c2cccc(C(F)(F)F)n2)CCC1", "note": "[Compound 03-11]", "EC50": "10 to 100"}
{"smiles": "Cc1ccc([C@@H](O)CNC(C)(C)C)nc1C#N", "note": "[Compound 03-8]", "EC50": "> 1000"}
{"smiles": "COc1ccc(C[C@@H](C)NC[C@H](O)c2cccc(C(F)(F)F)n2)cc1", "note": "[Compound 03-15]", "EC50": "< 10"}
{"smiles": "Cc1ccc([C@H](O)CNC(C)(C)C)nc1C(F)(F)F", "note": "[Compound 03-168]", "EC50": "10 to 100"}
{"smiles": "CC(C)(C)NC[C@H](O)c1cccc(C(F)F)n1", "note": "[Compound 03-44]", "EC50": "10 to 100"}
{"target": "β1-adrenergic receptor (Homo sapiens (Human), UniProt P08588)", "assay": "cAMP Gs dynamic HTRF assay, β1 expressing CHO cells", "format": "cell-based", "settings": "B1-AR; CHO-K cells; read-out: Average EC50 [Receptor subtype: B1-AR; Cell type: CHO-K]", "outline": "as §1", "units": {"EC50": "nM"}}
{"smiles": "O[C@@H](CNC1Cc2ccccc2C1)c1cccc(C(F)(F)F)n1", "note": "[Compound 03-21]", "EC50": "100 to 1000"}
{"smiles": "CC(C)(C)NC[C@H](O)c1ccc(C(F)(F)F)cn1", "note": "[Compound 03-126]", "EC50": "10 to 100"}
{"smiles": "CC1(NC[C@H](O)c2cccc(C(F)(F)F)n2)CCC1", "note": "[Compound 03-11]", "EC50": "10 to 100"}
{"smiles": "Cc1ccc([C@@H](O)CNC(C)(C)C)nc1C#N", "note": "[Compound 03-8]", "EC50": "> 1000"}
{"smiles": "COc1ccc(C[C@@H](C)NC[C@H](O)c2cccc(C(F)(F)F)n2)cc1", "note": "[Compound 03-15]", "EC50": "< 10"}
{"smiles": "Cc1ccc([C@H](O)CNC(C)(C)C)nc1C(F)(F)F", "note": "[Compound 03-168]", "EC50": "10 to 100"}
{"smiles": "CC(C)(C)NC[C@H](O)c1cccc(C(F)F)n1", "note": "[Compound 03-44]", "EC50": "10 to 100"}
{"target": "β2 adrenergic receptor (Homo sapiens (Human), UniProt P07550)", "sequence (P07550 whole entry, species assumed)": "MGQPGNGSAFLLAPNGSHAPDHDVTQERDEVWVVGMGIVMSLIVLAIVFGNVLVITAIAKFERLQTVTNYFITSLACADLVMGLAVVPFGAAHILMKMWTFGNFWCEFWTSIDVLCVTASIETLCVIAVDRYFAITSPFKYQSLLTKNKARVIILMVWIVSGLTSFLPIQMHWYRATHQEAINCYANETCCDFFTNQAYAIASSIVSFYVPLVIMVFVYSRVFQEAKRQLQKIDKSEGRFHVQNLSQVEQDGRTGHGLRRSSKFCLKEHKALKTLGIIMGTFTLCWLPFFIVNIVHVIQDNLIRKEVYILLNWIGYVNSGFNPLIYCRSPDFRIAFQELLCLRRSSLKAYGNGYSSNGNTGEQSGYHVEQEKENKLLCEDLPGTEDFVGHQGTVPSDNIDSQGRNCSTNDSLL", "assay": "cAMP Gs dynamic HTRF assay, β2 expressing CHO cells", "format": "cell-based", "settings": "B2-AR; CHO-K1 (HitHunter); read-out: Average pEC50 [Receptor subtype: B2-AR; Cell type: CHO-K1 (HitHunter)] (converted)", "outline": "as §1", "units": {"EC50": "nM"}}
{"smiles": "O[C@@H](CNC1Cc2ccccc2C1)c1cccc(C(F)(F)F)n1", "note": "[Compound 03-21]", "EC50": "10 to 100"}
{"smiles": "CC(C)(C)NCC(O)c1cncc(Cl)n1", "note": "(stereo not drawn) [Compound 03-219]", "EC50": "100 to 1000"}
{"smiles": "CC(C)(C)NC[C@H](O)c1ccc(C(F)(F)F)cn1", "note": "[Compound 03-126]", "EC50": "10 to 100"}
{"smiles": "CC1(NC[C@H](O)c2cccc(C(F)(F)F)n2)CCC1", "note": "[Compound 03-11]", "EC50": "< 10"}
{"smiles": "Cc1ccc([C@@H](O)CNC(C)(C)C)nc1C#N", "note": "[Compound 03-8]", "EC50": "100 to 1000"}
{"smiles": "COc1ccc(C[C@@H](C)NC[C@H](O)c2cccc(C(F)(F)F)n2)cc1", "note": "[Compound 03-15]", "EC50": "< 10"}
{"smiles": "Cc1ccc([C@H](O)CNC(C)(C)C)nc1C(F)(F)F", "note": "[Compound 03-168]", "EC50": "10 to 100"}
{"smiles": "CC(C)(C)NC[C@H](O)c1cccc(C(F)F)n1", "note": "[Compound 03-44]", "EC50": "10 to 100"}
{"target": "β2 adrenergic receptor (Homo sapiens (Human), UniProt P07550)", "assay": "cAMP Gs dynamic HTRF assay, β2 expressing CHO cells", "format": "cell-based", "settings": "B2-AR; CHO-K cells; read-out: Average EC50 [Receptor subtype: B2-AR; Cell type: CHO-K]", "outline": "as §1", "units": {"EC50": "nM"}}
{"smiles": "O[C@@H](CNC1Cc2ccccc2C1)c1cccc(C(F)(F)F)n1", "note": "[Compound 03-21]", "EC50": "10 to 100"}
{"smiles": "CC(C)(C)NC[C@H](O)c1ccc(C(F)(F)F)cn1", "note": "[Compound 03-126]", "EC50": "10 to 100"}
{"smiles": "CC1(NC[C@H](O)c2cccc(C(F)(F)F)n2)CCC1", "note": "[Compound 03-11]", "EC50": "< 10"}
{"smiles": "Cc1ccc([C@@H](O)CNC(C)(C)C)nc1C#N", "note": "[Compound 03-8]", "EC50": "100 to 1000"}
{"smiles": "COc1ccc(C[C@@H](C)NC[C@H](O)c2cccc(C(F)(F)F)n2)cc1", "note": "[Compound 03-15]", "EC50": "< 10"}
{"smiles": "Cc1ccc([C@H](O)CNC(C)(C)C)nc1C(F)(F)F", "note": "[Compound 03-168]", "EC50": "10 to 100"}
{"smiles": "CC(C)(C)NC[C@H](O)c1cccc(C(F)F)n1", "note": "[Compound 03-44]", "EC50": "10 to 100"}
{"target": "β2 adrenergic receptors in human astrocytoma cells (1321N1) (Homo sapiens (Human), UniProt P07550)", "sequence (P07550 whole entry)": "as the sequence (P07550 whole entry, species assumed) above", "assay": "cAMP HTRF assay in human astrocytoma cells (1321N1)", "format": "cell-based", "settings": "Endogenous receptor; 1321N1 cells", "method": "(§2) cAMP homogeneous time-resolved fluorescence (HTRF). Compound efficacy was determined using the cAMP Gs dynamic HTRF assay (Cisbio, catalog #62AM4PEC) largely following the manufacturer's instructions, also detailed below.\n(§3) Compound preparation. […] Standard serial dilution curves were 10-point, 5-fold dilutions starting from a highest concentration of 10 μM. […] Assay plates were centrifuged at 500×g for 10 seconds. Compounds and IBMX were prepared at 2× final dose to compensate for addition of cells.\n(§4) Cell preparation. 1× stimulation buffer, washing PBS (Dulbecco's phosphate-buffered saline, −Mg −Ca; Caisson Labs, catalog #PBL01), assay PBS (Dulbecco's phosphate-buffered saline, +Mg, +Ca; Caisson Labs, catalog #PBL02) and Versene (0.02% EDTA disodium salt solution in PBS without calcium or magnesium; Caisson Labs, catalog #EDL01) were pre-warmed to 37° C. Cells expressing beta-adrenergic receptor were washed in washing PBS to remove growth medium and then released from the surface by incubating with Versene for 5-10 minutes at 37° C. Cells were harvested using assay PBS, counted manually by hemocytometer or by an automated cell counter, pelleted by centrifugation (200×g, 5 minutes) and resuspended in 37° C. 1× stimulation buffer to a final density of 1.5×10^6 cells/mL. 5 μL of the suspended cell solution (7500 cell total) were added to all wells of the 384 well assay plate, the assay plate was covered with an Axygen® plate seal (Corning PCR-SP) and incubated in a humidified 37° C. environment supplemented with 5% CO2 for 30 minutes.\n(§5) HTRF reagent addition, reading and data analysis. After 30 minutes of cell stimulation with test compound, the assay plates were centrifuged at 500×g for 10 seconds, and incubation was stopped with the addition of 5 μL cAMP-D2 acceptor, diluted 1:21 in detection and lysis buffer 2 (Cisbio 62CL2FDF) was added to all cells. Subsequently, 5 μL Anti-cAMP-Eu Donor, diluted 1:21 in detection and lysis buffer 2, was added to cells. Plates were sealed and reactions gently ‘vortexed’ at 900 rpm on a Heidolph Titramax 1000 for at least 30 minutes at room temperature. Plates were centrifuged again at 500×g for 10 seconds, and HTRF was measured using a Tecan Spark plate reader at 50 flashes per well. […] Potency estimates (EC50) were derived from the four-parameter nonlinear regression of the concentration-effect curve and an estimate of relative efficacy was determined by comparing the magnitude of the test compound HTRF signal window (min−max dose) with the signal window of the full agonist control, isoproterenol."}
{"smiles": "CC(C)(C)NC[C@H](O)c1cccc(C(F)F)n1", "note": "[Compound 03-44]", "Average pEC50 [Receptor subtype: Endogenous; Cell type: 1321N1]": "C (C = <7-6)"}
{"target": "β2 adrenergic receptors in human astrocytoma cells (1321N1) (Homo sapiens (Human), UniProt P07550)", "assay": "cAMP HTRF assay in human astrocytoma cells (1321N1)", "format": "cell-based", "settings": "Endogenous receptor; 1321N1 cells; read-out: Average EC50 [Receptor subtype: Endogenous; Cell type: 1321N1]", "method": "as §2, §3, §4, §5", "units": {"EC50": "nM"}}
{"smiles": "CC(C)(C)NC[C@H](O)c1cccc(C(F)F)n1", "note": "[Compound 03-44]", "EC50": "100 to 1000"}
{"target": "β2 adrenergic receptors in human astrocytoma cells (1321N1) (Homo sapiens (Human), UniProt P07550)", "assay": "cAMP HTRF assay in human astrocytoma cells (1321N1)", "format": "cell-based", "settings": "Endogenous receptor; 1321N1 cells; read-out: Average pEC50 [Receptor subtype: Endogenous; Cell type: 1321N1] (converted)", "method": "as §2, §3, §4, §5", "units": {"EC50": "nM"}}
{"smiles": "O[C@@H](CNC1Cc2ccccc2C1)c1cccc(C(F)(F)F)n1", "note": "[Compound 03-21]", "EC50": "10 to 100"}
{"smiles": "CC(C)(C)NCC(O)c1cncc(Cl)n1", "note": "(stereo not drawn) [Compound 03-219]", "EC50": "> 1000"}
{"smiles": "CC(C)(C)NC[C@H](O)c1ccc(C(F)(F)F)cn1", "note": "[Compound 03-126]", "EC50": "10 to 100"}
{"smiles": "CC1(NC[C@H](O)c2cccc(C(F)(F)F)n2)CCC1", "note": "[Compound 03-11]", "EC50": "100 to 1000"}
{"smiles": "Cc1ccc([C@@H](O)CNC(C)(C)C)nc1C#N", "note": "[Compound 03-8]", "EC50": "> 1000"}
{"smiles": "COc1ccc(C[C@@H](C)NC[C@H](O)c2cccc(C(F)(F)F)n2)cc1", "note": "[Compound 03-15]", "EC50": "< 10"}
{"smiles": "Cc1ccc([C@H](O)CNC(C)(C)C)nc1C(F)(F)F", "note": "[Compound 03-168]", "EC50": "100 to 1000"}
{"target": "B3-AR (Homo sapiens (Human), UniProt P13945)", "sequence (P13945 whole entry, species assumed)": "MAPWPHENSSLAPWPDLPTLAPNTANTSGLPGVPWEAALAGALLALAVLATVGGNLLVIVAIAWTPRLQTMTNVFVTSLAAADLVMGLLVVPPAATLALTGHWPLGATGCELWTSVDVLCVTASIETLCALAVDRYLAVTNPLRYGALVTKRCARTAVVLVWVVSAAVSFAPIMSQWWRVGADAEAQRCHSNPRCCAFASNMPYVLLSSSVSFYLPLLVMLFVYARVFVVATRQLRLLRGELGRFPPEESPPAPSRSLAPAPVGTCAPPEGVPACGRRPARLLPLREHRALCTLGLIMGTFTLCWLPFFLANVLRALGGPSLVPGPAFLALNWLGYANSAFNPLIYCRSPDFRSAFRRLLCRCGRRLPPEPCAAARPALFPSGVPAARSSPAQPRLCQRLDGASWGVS", "assay": "cAMP potency assay, B3-AR expressing CHO-K1 cells", "format": "cell-based", "settings": "not given"}
{"smiles": "CC(C)(C)NC[C@H](O)c1cccc(C(F)F)n1", "note": "[Compound 03-44]", "Average pEC50 [Receptor subtype: B3-AR; Cell type: CHO-K1]": "D (D < 6)"}
{"target": "B3-AR (Homo sapiens (Human), UniProt P13945)", "assay": "cAMP potency assay, B3-AR expressing CHO-K1 cells", "format": "cell-based", "settings": "read-out: Average EC50 [Receptor subtype: B3-AR, Cell type: CHO-K1]", "units": {"EC50": "nM"}}
{"smiles": "CC(C)(C)NC[C@H](O)c1cccc(C(F)F)n1", "note": "[Compound 03-44]", "EC50": "> 1000"}
{"target": "B3-AR (Homo sapiens (Human), UniProt P13945)", "assay": "cAMP potency assay, B3-AR expressing CHO-K1 cells", "format": "cell-based", "settings": "read-out: Average pEC50 [Receptor subtype: B3-AR, Cell type: CHO-K1] (converted)", "units": {"EC50": "nM"}}
{"smiles": "O[C@@H](CNC1Cc2ccccc2C1)c1cccc(C(F)(F)F)n1", "note": "[Compound 03-21]", "EC50": "> 1000"}
{"smiles": "CC(C)(C)NCC(O)c1cncc(Cl)n1", "note": "(stereo not drawn) [Compound 03-219]", "EC50": "100 to 1000"}
{"smiles": "CC(C)(C)NC[C@H](O)c1ccc(C(F)(F)F)cn1", "note": "[Compound 03-126]", "EC50": "100 to 1000"}
{"smiles": "CC1(NC[C@H](O)c2cccc(C(F)(F)F)n2)CCC1", "note": "[Compound 03-11]", "EC50": "> 1000"}
{"smiles": "Cc1ccc([C@@H](O)CNC(C)(C)C)nc1C#N", "note": "[Compound 03-8]", "EC50": "> 1000"}
{"smiles": "COc1ccc(C[C@@H](C)NC[C@H](O)c2cccc(C(F)(F)F)n2)cc1", "note": "[Compound 03-15]", "EC50": "100 to 1000"}
{"smiles": "Cc1ccc([C@H](O)CNC(C)(C)C)nc1C(F)(F)F", "note": "[Compound 03-168]", "EC50": "100 to 1000"}
